Experimental data reported in patent US6559170B1, “Pyridine derivatives having fungicidal activity and processes to produce and use same” (Dow AgroScience LLC, priority 1999, dated 2003).

Columns and labels:
Format in all cases: in vivo
[1] = system: Leptosphaeria nodorum—LEPTNO; assay: Glume blotch of wheat, 1-day protectant whole plant test; conditions: 100 ppm spray, 1-day protectant (1DP), wheat cultivar Monon
[2] = system: Puccinia recondita—PUCCRT; assay: Brown rust of wheat, 1-day protectant whole plant test; conditions: 100 ppm spray, 1-day protectant (1DP), wheat cultivar Monon
Erysiphe graminis—ERYSGT = assay: Powdery Mildew of Wheat, 1-day protectant whole plant test; conditions: 100 ppm spray, 1-day protectant (1DP), wheat cultivar Monon
[3] = system: Phytophthora infestans—PHYTIN; conditions: 100 ppm spray, 1-day protectant (1DP), tomatoes cultivar Rutgers

Structure (SMILES)	LEPTNO percent control of the plant disease compared with untreated, inoculated plants [1] [%]	PUCCRT percent control of the plant disease compared with untreated, inoculated plants [2] [%]	ERYSGT percent control of the plant disease compared with untreated, inoculated plants (Erysiphe graminis—ERYSGT) [%]	PHYTIN percent control of the plant disease compared with untreated, inoculated plants [3] [%]
CNC(=O)C(=NOC)c1ccccc1COc1nc(Sc2ccccc2)c(F)cc1F [Compound 32]	98	100	77	100
CNC(=O)C(=NOC)c1ccccc1COc1cccc(Sc2ccc(C)cc2)n1 [Compound 15]	67	100	92	100
CNC(=O)C(=NOC)c1ccccc1COc1cccc(Sc2cccc(F)c2)n1 [Compound 30]	98	100	98	100
CNC(=O)C(=NOC)c1cccc(Cl)c1COc1ccc(Sc2cccc(Cl)c2)cn1 [Compound 8, 2-Methoxyimino-N-methyl-{3-chloro-2-[5-(3-chlorophenyl)thio-2-pyridyloxy]methylphenyl}acetamide]	98	98	98	100
CNC(=O)C(=NOC)c1cccc(Cl)c1COc1ccc(Sc2cccc(C)c2)cn1 [Compound 7, 2-Methoxyimino-N-methyl-{3-chloro-2-[5-(3-methylphenyl)thio-2-pyridyloxy]methylphenyl}acetamide]	98	100	98	100
CNC(=O)C(=NOC)c1ccccc1COc1cccc(Sc2cccc(Cl)c2)n1 [Compound 23]	78	100	98	100
CNC(=O)C(=NOC)c1ccccc1COc1cccc(Sc2ccc(Cl)cc2C)n1 [Compound 28]	98	100	98	100
CNC(=O)C(=NOC)c1ccccc1COc1cccc(Sc2cccc(C(F)(F)F)c2)n1 [Compound 22]	78	98	92	100
CNC(=O)C(=NOC)c1ccccc1COc1cccc(Sc2c(C)cccc2C)n1 [Compound 26]	89	98	69	100
CNC(=O)C(=NOC)c1ccccc1COc1cccc(Sc2cccc3ccccc23)n1 [Compound 31]	98	100	92	100
CNC(=O)C(=NOC)c1ccccc1COc1cccc(Sc2ccc(F)cc2)n1 [Compound 24]	98	100	85	100
CNC(=O)C(=NOC)c1ccccc1COc1nc(Sc2ccccc2)c(Cl)cc1Cl [Compound 10]	98	100	99	96
CNC(=O)C(=NOC)c1ccccc1COc1cccc(Sc2ccccc2C)n1 [Compound 17]	98	100	92	100
CNC(=O)C(=NOC)c1ccccc1COc1nc(Sc2ccc(Cl)cc2)c(Cl)cc1Cl [Compound 11]	0	89	69	44
CNC(=O)C(=NOC)c1cccc(F)c1COc1cccc(Sc2ccccc2)n1 [Compound 34]	98	100	85	94
CNC(=O)C(=NOC)c1ccccc1COc1cccc(Sc2cccc(C)c2)n1 [Compound 16]	89	100	92	100
CNC(=O)C(=NOC)c1ccccc1COc1nc(Sc2ccc(C(F)(F)F)cc2)c(Cl)cc1Cl [Compound 13]	0	98	98	0
CNC(=O)C(=NOC)c1ccccc1COc1cccc(Sc2ccccc2C(F)(F)F)n1 [Compound 29]	78	100	98	100
CNC(=O)C(=NOC)c1ccccc1COc1ccc(C(F)(F)F)c(Sc2ccccc2)n1 [Compound 12]	78	100	98	94
CNC(=O)C(=NOC)c1ccccc1COc1cccc(Sc2ccc(Cl)cc2)n1 [Compound 20]	98	100	92	100
CCc1ccccc1Sc1cccc(OCc2ccccc2C(=NOC)C(=O)NC)n1 [Compound 33]	98	100	92	100
CNC(=O)C(=NOC)c1ccccc1COc1cccc(Sc2ccc(Br)cc2)n1 [Compound 19]	98	100	98	100
CNC(=O)C(=NOC)c1ccccc1COc1cccc(Sc2ccccc2)n1 [Compound 14]	89	100	92	100
CNC(=O)C(=NOC)c1ccccc1COc1cccc(Sc2ccccc2Cl)n1 [Compound 25]	98	100	77	94
